Reference: patent US10813920B2, “Drug for treating corneal endothelium by promoting cell proliferation or inhibiting cell damage” (THE DOSHISHA, priority 2013, dated 2020)

How the values were obtained:
[1] = cited from earlier work
[2] = test system: human corneal endothelial cells; assay: UV-induced cell death, live cell count; assay type: cell-based; details: UV 100 J/m^2; 10 μM; 12 hours after UV irradiation; vs UV only
Method: In order to study the effect of a p38 MAP kinase signal inhibition on cell death, cultured human corneal endothelial cells were stimulated with ultraviolet rays (UV) of 100 J/m^2 to induce cell death to study the effect of SB203580 (used at 10 μM). The number of cells was counted for the study.

[3] = test system: human corneal endothelial cells; assay: Cytokine antibody array (Proteome Profiler) of corneal endothelial culture supernatant; assay type: cell-based; details: 10 μM, semi quantitative
Method: Corneal endothelial cells were cultured in the presence of 10 μM SB203580, and culture supernatant was collected as a sample solution. Cytokines in the culture supernatant were comprehensively measured semi quantitatively with a Proteome Profiler (# ARY005, R&D). A membrane blotted with cytokine antibodies was placed in a tray. 2 ml of blocking solution was added and the membrane was incubated for 1 hour at room temperature. Biotin antibodies were added to the sample solution and incubated for 1 hour at room temperature. The blocking solution was discarded. The membrane was immersed in an antibody solution and incubated overnight at 4° C. After washing the membrane, 2 ml of HRP labeling streptavidin solution diluted with a blocking solution was added and the membrane was incubated at room temperature for 30 minutes. After washing the membrane, a substrate solution was added for detection with LAS400 (Fuji Film).
Based on the aforementioned experimental methodology, a cytokine antibody array (Proteome Profiler, # ARY005, R&D Systems) blotted with 36 types of antibodies was used to find the expression pattern of cytokines in a human corneal endothelial culture solution.

[4] = test system: human corneal endothelial cells; assay: Ki67 immunostaining of cultured human corneal endothelial cells; assay type: cell-based; details: 10 μM; after 3 days; vs control
Method: *Human corneal endothelial cells (HCEC, where the cells were obtained and culturing method thereof): HCEC was cultured as follows. In short, Descemet's membrane including corneal endothelial cells was peeled off from a corneal for research purchased from the Seattle Eye Bank, and the corneal endothelial cells were mechanically peeled off with a basal membrane. After collagenase (ROCHE catalog No: 10 103 586 001) was used to detach and collect the corneal endothelial cell from the basal membrane (typically 1 mg/mL collagenase A (Roche Applied Science) was used for treatment at 37° C. for 2 hours), the cells were subjected to primary culture. The medium used was Opti-MEM I Reduced-Serum Medium, Liquid (INVITROGEN catalog No.: 31985-070) to which 8% fetal bovine serum (FBS) (BIOWEST, catalog No.: S1820-500), […] of CaCl2.2H2O (SIGMA catalog No.: C7902-500G), 0.08% of chondroitin sulfate (SIGMA catalog No.: C9819-5G), 20 μg/ml of ascorbic acid (SIGMA catalog No.: A4544-25G), 50 μg/ml of gentamicin (INVITROGEN catalog No.: 15710-064) and 5 ng/ml of EGF (INVITROGEN catalog No.: PHG0311) were added and acclimated for a 3T3 feeder cell. […] Immunostaining was applied to the cells for observation with a fluorescence microscope. […]

corneal endothelium = assay: Partial rabbit corneal endothelial disorder model, eye drops; assay type: in vivo
Method: A stainless steel chip with a diameter of 7 mm was immersed in liquid nitrogen and cooled. The chip was contacted with the center portion of a corneal of a Japanese white rabbit (obtained from Oriental Bioservice) for 15 seconds under general anesthesia, such that corneal endothelial cells at the center portion partially fell off. Eye drops of SB203580 adjusted to 10 mM was then administered 4 times a day for 2 days at 50 μl per dose. As a control, eye drops of a base agent were administered in an eye in which a partial corneal endothelial disorder was similarly created, and a picture was taken. Further, the rabbit was euthanized and the corneal was extracted. The wounded area of the corneal endothelium was stained with alizarin red S (Nacalai Tesque, CI-58005) and observed. Furthermore, immunostaining was applied to corneal tissue with the cell proliferation marker Ki67. The same methodology as the aforementioned Examples or the like was used for immunostaining.

C[S+]([O-])c1ccc(-c2nc(-c3ccncc3)c(-c3ccc(F)cc3)[nH]2)cc1 (centres unmarked) [SB203580, 4-(4-fluorophenyl)-2-(4-methylsulfinylphenyl)-5-(4-pyridyl)-1H-imidazole]
solubility in methanol ([1]; methanol): soluble | solubility in water (pharmacopoeia class) ([1]; water): difficult to dissolve (100 mL or greater and less than 1000 mL) | number of live cells after UV irradiation (percentage to control) [2]: significantly increases | Cytokines other than serpinE1 (GROa, sICAM-1, IL-6, IL-8, IL-23, MCP-1, MIF) in culture supernatant [3]: decreased relative to vehicle | Expression of Ki67 (Ki67 positive cells) [4]: significantly more cells | wound area of corneal endothelium (alizarin staining) (corneal endothelium; 10 mM eye drops 4 times a day for 2 days, 50 μl per dose, 6 eyes each, vs control, p<0.01): contracted significantly more | transparency of cornea (anterior eye section picture) (corneal endothelium; 10 mM eye drops 4 times a day for 2 days, 50 μl per dose, day 2): recovered quickly | Expression of Ki67 in corneal tissue (ratio of Ki67 positive cells) (corneal endothelium; 10 mM eye drops, vs control): significantly more cells
